Test results published in patent EP4273147A1, “SUBSTITUTED SPIROLACTAMS, SALTS THEREOF AND THEIR USE AS HERBICIDALLY ACTIVE SUBSTANCES” (Bayer Aktiengesellschaft, priority 2022, dated 2023).

How the values were obtained:
[1] = system: DIGSA; assay: Herbicidal pre-emergence action, section C (Table C5); type: in vivo, Digitaria sanguinalis; conditions: application rate 320 g/ha; visual grading after ca. 3 weeks
Description: (§5) Seeds of mono- and dicotyledonous weed plants and crop plants were sown, in plastic or organic planting pots, in sandy loam and covered with soil. The compounds according to the invention, formulated in the form of wettable powders (WP) or as emulsifiable concentrates (EC), were applied to the surface of the covering soil as aqueous suspension or emulsion, with the addition of 0.5% of an additive, at an application rate of 600 1 of water/ha (converted). Following treatment, the pots were placed in a greenhouse and kept under optimum growth conditions for the test plants.

[2] = system: SETVI; assay: Herbicidal post-emergence action (Table B8); type: in vivo, Setaria viridis; conditions: application rate 1280 g/ha
Outline: (§1)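 Greenhouse post-emergence screen on potted weeds in sandy loam, treatment at one-leaf stage, visual % control scored ~3 weeks later against untreated plants.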

[3] = system: ALOMY; assay: Herbicidal pre-emergence action, section C (Table C2); type: in vivo, Alopecurus myosuroides; conditions: application rate 80 g/ha; visual grading after ca. 3 weeks
[4] = system: MATIN; assay: Herbicidal pre-emergence action, section C (Table C8); type: in vivo, Matricaria inodora; conditions: application rate 320 g/ha; visual grading after ca. 3 weeks
[5] = system: DIGSA; assay: Herbicidal pre-emergence action (Table A12); type: in vivo, Digitaria sanguinalis; conditions: application rate 320 g/ha; visual grading after ca. 3 weeks
Outline: (§2)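 Seeds of monocot and dicot weeds were sown in pots of sandy loam and covered with soil. Each pot held a double sowing: one monocotyledonous plus one dicotyledonous species.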

[6] = system: STEME; assay: Herbicidal pre-emergence action (Table A6); type: in vivo, Stellaria media; conditions: visual grading after ca. 3 weeks
Outline: as §2

[7] = system: VERPE; assay: Herbicidal pre-emergence action (Table A11); type: in vivo, Veronica persica; conditions: application rate 1280 g/ha; visual grading after ca. 3 weeks
Outline: as §2

[8] = system: TRZAS; assay: Pre-emergence effects on crop plants (Table D2); type: in vivo, Triticum aestivum; conditions: crop plant, visual grading after ca. 3 weeks
[9] = system: MATIN; assay: Herbicidal post-emergence action (Table B6); type: in vivo, Matricaria inodora; conditions: application rate 1280 g/ha; rated visually after about 3 weeks
Outline: as §1

[10] = system: ECHCG; assay: Herbicidal post-emergence action, section E (Table E5); type: in vivo, Echinochloa crus-galli; conditions: application rate 320 g/ha; assessed visually after ca. 3 weeks
Description: (§3) 2 to 3 weeks after sowing, the test plants were sprayed in the single-leaf stage.

[11] = system: ZEAMX; assay: Post-emergence effects on crop plants (Table F1); type: in vivo, Zea mays; conditions: crop plant ZEAMX
Description: as §3

[12] = system: POAAN; assay: Herbicidal pre-emergence action (Table A7); type: in vivo, Poa annua; conditions: visual grading after ca. 3 weeks
Outline: as §2

[13] = system: ORYZA; assay: Post-emergence effects on crop plants (Table F3); type: in vivo, Oryza sativa; conditions: application rate 320 g/ha, crop plant ORYZA
Description: as §3

[14] = system: TRZAS; assay: Post-emergence effects on crop plants (Table F2); type: in vivo, Triticum aestivum; conditions: application rate 320 g/ha, crop plant TRZAS
Description: as §3

[15] = system: VERPE; assay: Herbicidal pre-emergence action, section C (Table C11); type: in vivo, Veronica persica; conditions: application rate 320 g/ha; visual grading after ca. 3 weeks
[16] = system: SETVI; assay: Herbicidal pre-emergence action, section C (Table C10); type: in vivo, Setaria viridis; conditions: visual grading after ca. 3 weeks
[17] = system: SETVI; assay: Herbicidal pre-emergence action (Table A5); type: in vivo, Setaria viridis; conditions: visual grading after ca. 3 weeks
Outline: as §2

[18] = system: VIOTR; assay: Herbicidal pre-emergence action, section C (Table C12); type: in vivo, Viola tricolor; conditions: application rate 80 g/ha; visual grading after ca. 3 weeks
[19] = system: POLCO; assay: Herbicidal pre-emergence action, section C (Table C9); type: in vivo, Polygonum convolvulus; conditions: application rate 320 g/ha; visual grading after ca. 3 weeks
[20] = system: ECHCG; assay: Herbicidal pre-emergence action, section C (Table C6); type: in vivo, Echinochloa crus-galli; conditions: application rate 320 g/ha; visual grading after ca. 3 weeks
[21] = system: ZEAMX; assay: Pre-emergence effects on crop plants (Table D1); type: in vivo, Zea mays; conditions: crop plant; application rate 320 g/ha; visual grading after ca. 3 weeks
[22] = system: KCHSC; assay: Herbicidal pre-emergence action (Table A10); type: in vivo, Kochia scoparia; conditions: visual grading after ca. 3 weeks
Outline: as §2

[23] = system: MATIN; assay: Herbicidal pre-emergence action (Table A4); type: in vivo, Matricaria inodora; conditions: visual grading after ca. 3 weeks
Outline: as §2

[24] = system: ORYZA; assay: Pre-emergence effects on crop plants (Table D3); conditions: crop plant, visual grading after ca. 3 weeks
[25] = system: LOLRI; assay: Herbicidal pre-emergence action (Table A3); type: in vivo, Lolium rigidum; conditions: visual grading after ca. 3 weeks
Outline: as §2

[26] = system: ECHCG; assay: Herbicidal post-emergence action (Table B3); type: in vivo, Echinochloa crus-galli; conditions: application rate 1280 g/ha, rated visually after about 3 weeks
Outline: as §1

[27] = system: ECHCG; assay: Herbicidal pre-emergence action (Table A2); type: in vivo, Echinochloa crus-galli; conditions: visual grading after ca. 3 weeks
Outline: as §2

[28] = system: ALOMY; assay: Herbicidal pre-emergence action (Table A9); type: in vivo, Alopecurus myosuroides; conditions: application rate 1280 g/ha; visual grading after ca. 3 weeks
Outline: as §2

[29] = system: LOLRI; assay: Herbicidal pre-emergence action, section C (Table C7); type: in vivo, Lolium rigidum; conditions: application rate 320 g/ha; visual grading after ca. 3 weeks
[30] = system: ABUTH; assay: Herbicidal pre-emergence action, section C (Table C1); type: in vivo, Abutilon theophrasti; conditions: application rate 320 g/ha; visual grading after ca. 3 weeks
Description: as §5

[31] = system: SETVI; assay: Herbicidal post-emergence action, section E (Table E8); type: in vivo, Setaria viridis; conditions: assessed visually after ca. 3 weeks
Description: as §3

[32] = system: GLXMA; assay: Post-emergence effects on crop plants (Table F4); type: in vivo, Glycine max; conditions: application rate 320 g/ha, crop plant GLXMA
Description: as §3

[33] = system: BRSNW; assay: Pre-emergence effects on crop plants (Table D5); type: in vivo, Brassica napus; conditions: crop plant; application rate 320 g/ha; visual grading after ca. 3 weeks
[34] = system: BRSNW; assay: Post-emergence effects on crop plants (Table F5); type: in vivo, Brassica napus; conditions: application rate 80 g/ha, crop plant BRSNW
Description: as §3

[35] = system: VIOTR; assay: Herbicidal post-emergence action, section E (Table E10); type: in vivo, Viola tricolor; conditions: application rate 320 g/ha; assessed visually after ca. 3 weeks
Description: as §3

[36] = system: VERPE; assay: Herbicidal post-emergence action (Table B10); type: in vivo, Veronica persica; conditions: application rate 1280 g/ha
Outline: as §1

[37] = system: GLXMA; assay: Pre-emergence effects on crop plants (Table D4); type: in vivo, Glycine max; conditions: crop plant; application rate 80 g/ha; visual grading after ca. 3 weeks
[38] = system: ALOMY; assay: Herbicidal post-emergence action (Table B2); type: in vivo, Alopecurus myosuroides; conditions: application rate 1280 g/ha; rated visually after about 3 weeks
Protocol: (§4) Seeds of mono- and dicotyledonous weed plants were placed in plastic pots in sandy loam soil (doubly sown with in each case one species of mono- or dicotyledonous weed plants per pot), covered with soil and cultivated in a greenhouse under controlled growth conditions. 2 to 3 weeks after sowing, the test plants were treated at the one-leaf stage. […] After the test plants had been kept in the greenhouse under optimum growth conditions for about 3 weeks, the activity of the preparations was rated visually in comparison to untreated controls. For example, 100% activity = the plants have died, 0% activity = like control plants.

[39] = system: KCHSC; assay: Herbicidal post-emergence action (Table B4); type: in vivo, Kochia scoparia; conditions: application rate 1280 g/ha; rated visually after about 3 weeks
Protocol: as §4

[40] = system: POAAN; assay: Herbicidal post-emergence action (Table B7); type: in vivo, Poa annua; conditions: application rate 1280 g/ha
Outline: as §1

[41] = system: AMARE; assay: Herbicidal post-emergence action (Table B11); type: in vivo, Amaranthus retroflexus; conditions: application rate 1280 g/ha
Outline: as §1

[42] = system: LOLRI; assay: Herbicidal post-emergence action (Table B5); type: in vivo, Lolium rigidum; conditions: application rate 1280 g/ha; rated visually after about 3 weeks
Protocol: as §4

| Structure (SMILES) | pre-emergence activity against DIGSA [1] | pre-emergence activity against DIGSA [5] | pre-emergence activity against STEME ([6]; application rate 320 g/ha) | pre-emergence activity against VERPE [7] | post-emergence activity against ECHCG [10] | pre-emergence activity against POAAN ([12]; application rate 320 g/ha) | post-emergence activity against ORYZA [13] | post-emergence activity against TRZAS [14] | pre-emergence activity against SETVI ([16]; application rate 320 g/ha) | pre-emergence activity against SETVI ([17]; application rate 320 g/ha) | pre-emergence activity against POLCO [19] | pre-emergence activity against ECHCG [20] | pre-emergence activity against ZEAMX [21] | pre-emergence activity against ECHCG ([27]; application rate 320 g/ha) | pre-emergence activity against ALOMY [28] | pre-emergence activity against TRZAS ([8]; application rate 320 g/ha) | post-emergence activity against GLXMA [32] | pre-emergence activity against BRSNW [33] | post-emergence activity against ZEAMX ([11]; application rate 320 g/ha) | pre-emergence activity against ECHCG ([27]; application rate 1280 g/ha) | also measured |
| --- | --- | --- | --- | --- | --- | --- | --- | --- | --- | --- | --- | --- | --- | --- | --- | --- | --- | --- | --- | --- | --- |
| O=C1N(Cc2ccccc2)CCC12CCCN(Cc1cccc(F)c1F)C2=O (racemic) [I-028] | 100% | 90% | 90% | 90% | 80% | 100% | 0% | 0% | 100% | 100% | 90% | 100% | 0% | 100% | 90% |  |  |  |  |  | post-emergence activity against SETVI [2]: 90%; pre-emergence activity against ALOMY [3]: 90%; pre-emergence activity against MATIN [4]: 80%; pre-emergence activity against TRZAS ([8]; application rate 80 g/ha): 20%; post-emergence activity against MATIN [9]: 90%; post-emergence activity against ZEAMX ([11]; application rate 80 g/ha): 0%; pre-emergence activity against VERPE [15]: 90%; pre-emergence activity against VIOTR [18]: 90%; pre-emergence activity against KCHSC ([22]; application rate 320 g/ha): 90%; pre-emergence activity against MATIN ([23]; application rate 320 g/ha): 90%; pre-emergence activity against ORYZA ([24]; application rate 80 g/ha): 0%; pre-emergence activity against LOLRI ([25]; application rate 320 g/ha): 100%; post-emergence activity against ECHCG [26]: 90%; pre-emergence activity against LOLRI [29]: 100%; pre-emergence activity against ABUTH [30]: 90%; post-emergence activity against SETVI ([31]; application rate 320 g/ha): 80% |
| O=C1N(Cc2cccc(F)c2Cl)CCCC12CCCN(Cc1cccc(F)c1Cl)C2=O (racemic) [I-047] |  |  |  | 90% | 80% |  | 0% | 20% |  |  |  | 80% | 20% | 90% | 100% | 20% | 20% | 20% | 10% |  | pre-emergence activity against POAAN ([12]; application rate 1280 g/ha): 100%; pre-emergence activity against SETVI ([16]; application rate 80 g/ha): 80%; pre-emergence activity against SETVI ([17]; application rate 1280 g/ha): 100%; post-emergence activity against BRSNW [34]: 20%; pre-emergence activity against ORYZA ([24]; application rate 320 g/ha): 0%; pre-emergence activity against LOLRI ([25]; application rate 1280 g/ha): 90%; post-emergence activity against VIOTR [35]: 80%; post-emergence activity against SETVI ([31]; application rate 80 g/ha): 80%; post-emergence activity against VERPE [36]: 90% |
| O=C1N(Cc2cc(F)ccc2Cl)CCCC12CCCN(Cc1cc(F)ccc1Cl)C2=O (racemic) [I-069] | 100% | 100% | 90% | 90% |  | 100% | 0% | 0% | 100% | 100% | 80% | 80% |  |  |  | 0% | 20% | 0% | 20% | 90% | pre-emergence activity against GLXMA [37]: 0%; post-emergence activity against BRSNW [34]: 0%; pre-emergence activity against ORYZA ([24]; application rate 320 g/ha): 20%; post-emergence activity against ALOMY [38]: 100%; post-emergence activity against VIOTR [35]: 90% |
| O=C1N(Cc2cccc(F)c2F)CCC12CCN(Cc1cccc(F)c1F)C2=O (racemic) [I-090] |  |  |  |  |  |  |  |  |  |  |  |  |  |  |  |  |  |  |  | 100% | pre-emergence activity against STEME ([6]; application rate 1280 g/ha): 90%; post-emergence activity against KCHSC [39]: 90%; pre-emergence activity against SETVI ([17]; application rate 1280 g/ha): 90%; pre-emergence activity against KCHSC ([22]; application rate 1280 g/ha): 90%; pre-emergence activity against MATIN ([23]; application rate 1280 g/ha): 90%; pre-emergence activity against LOLRI ([25]; application rate 1280 g/ha): 90% |
| O=C1N(Cc2cccnc2C(F)(F)F)CCCC12CCCN(Cc1cccnc1C(F)(F)F)C2=O [I-184, (+)-2,8-bis{[2-(trifluoromethyl)pyridin-3-yl]methyl}-2,8-diazaspiro[5.5]undecane-1,7-dione] |  |  |  |  |  |  |  |  |  |  |  |  |  |  |  |  |  |  |  | 100% | post-emergence activity against POAAN [40]: 90%; post-emergence activity against KCHSC [39]: 90%; post-emergence activity against AMARE [41]: 90%; post-emergence activity against LOLRI [42]: 90%; pest or weed control at 1280 g/ha ([25]; Lolium rigidum, pre-emergence, 504 h, application rate 1280 g/ha, read-out: pre-emergence activity against LOLRI): 90%; pest or weed control at 1280 g/ha ([26]; Echinochloa crus-galli, post-emergence, 504 h, read-out: post-emergence activity against ECHCG): 90%; post-emergence activity against VERPE [36]: 90% |
